From patent US11479470B2, “Three-dimensional boron-rich clusters” (The Regents of the University of California, priority 2016, dated 2022) come the findings set out here.

“Also recorded” adds a separate entry of the source.

The experiment deals with concanavalin A (ConA) (Canavalia ensiformis, UniProt P02866). Put plainly: Surface plasmon resonance (Biacore T100) binding of glycosylated OCN to immobilised lectin. As to conditions: injected at the highest mass concentration of [2l] shown (2.0 mg 1-1). How it is done: ConA was covalently attached to the Au-coated sensor chip's dextran layer via conventional amide coupling, and binding between ConA and the injected analyte was measured as a change in the refractive index (RI) and expressed in response units (RU). […] (See, e.g., Kamiya, N., et al., J. Am. Chem. Soc. 129, 3816-3817 (2007), the disclosure of which is incorporated herein by reference.)
(In general: Surface plasmon resonance follows binding to a sensor surface in real time, without labels.)

As to `O=C[C@H](O)[C@@H](O)[C@H](O)[C@H](O)CO` [D-glucose], the “binding response to ConA (controls)” value is recorded as “minimal to no binding; also recorded: minimal binding”.
